Source: patent US7153685B2 (The Board of Trustees of the University of Illinois, priority 2002, dated 2006)

Columns and labels:
ER3M = ER3M (Homo sapiens, UniProt P03372, E203W/G400V/H216G/Q214A)
ER 4.3 = ER 4.3 (Homo sapiens, UniProt P03372, E203W/G215R/G400V/H216P/N217T/Q214V)
Protocol: (§3) HepG2 human hepatoma cells were maintained in a humidified 5% CO2 incubator at 37° C. in Dulbecco's Modified Eagle's Medium (DMEM; Sigma; St. Louis, Mo.) supplemented with 10 % charcoal-dextran-stripped fetal bovine serum (CD-FBS; Atlanta Biologicals, Inc; Atlanta, Ga.), 50,000 U/l of penicillin, and 50 mg/liter streptomycin (Life Technologies, Inc.). MCF-7 cells were routinely maintained in DMEM/Nutrient Mixture F-12 (DMEM/F12) supplemented with 10% heat-inactived FBS, 50,000 U/l of penicillin, and 50 mg/l streptomycin. CHO-S cells were maintained in DMEM/F12 supplemented with 10% heat-inactivated FBS (CD-FBS when ERs were being expressed) or 10% CD-new born calf serum (CD-NBCS, when reporter activity by different ligands were measured), 29.2 mg/l L-glutamine (Sigma), and 50,000 U/l of penicillin and 50 mg/l streptomycin.
Transient transfections in HepG2 cells was accomplished using calcium phosphate co-precipitation (Ausubel et al., 1987). Briefly, cells were plated in 12-well microplates at a density of 1×10^5 cells/well. The next day, the medium was replaced, and 2–6 hours later, precipitated calcium phosphate:DNA co-crystals were added. […] Activity was determined using the dual luciferase assay protocol according to the manufacturer's directions (Promega) on a Monolight 2010 luminometer (Analytical Luminescence, San Diego, Calif.) […]

ER 2 = ER 2 (Homo sapiens, UniProt P03372, E203W/G215R/G400V/Q214A); conditions: ATL2/PAL-LUC, 10 nM ligand
Protocol: as §3
Transient transfections in HepG2 cells was accomplished using calcium phosphate co-precipitation (Ausubel et al., 1987). Briefly, cells were plated in 12-well microplates at a density of 1×10^5 cells/well. The next day, the medium was replaced, and 2–6 hours later, precipitated calcium phosphate:DNA co-crystals were added. […] Activity was determined using the dual luciferase assay protocol according to the manufacturer's directions (Promega) on a Monolight 2010 luminometer (Analytical Luminescence, San Diego, Calif.)

wild type hERα = target: T1, wild type hERα (Homo sapiens, UniProt P03372, G400V); assay: Ligand-dependent luciferase reporter transactivation in transfected HepG2 cells
T1 sequence (P03372 1-595 G400V): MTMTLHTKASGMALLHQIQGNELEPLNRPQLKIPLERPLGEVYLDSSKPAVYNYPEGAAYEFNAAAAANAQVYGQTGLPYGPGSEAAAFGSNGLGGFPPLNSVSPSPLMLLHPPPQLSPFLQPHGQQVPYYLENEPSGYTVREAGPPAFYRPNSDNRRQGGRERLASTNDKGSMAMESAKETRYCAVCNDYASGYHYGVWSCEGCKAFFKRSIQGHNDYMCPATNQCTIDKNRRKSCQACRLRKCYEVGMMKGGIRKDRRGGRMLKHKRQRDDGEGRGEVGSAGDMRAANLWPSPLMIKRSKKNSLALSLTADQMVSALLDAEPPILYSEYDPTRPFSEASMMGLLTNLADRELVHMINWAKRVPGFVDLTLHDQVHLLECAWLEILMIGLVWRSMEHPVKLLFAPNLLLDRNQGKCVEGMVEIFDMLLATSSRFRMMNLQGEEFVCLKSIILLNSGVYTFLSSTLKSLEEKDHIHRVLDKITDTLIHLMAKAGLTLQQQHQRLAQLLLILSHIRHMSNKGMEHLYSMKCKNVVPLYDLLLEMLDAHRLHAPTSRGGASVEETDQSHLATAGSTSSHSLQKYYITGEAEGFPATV
Protocol: as §3
Transient transfections in HepG2 cells was accomplished using calcium phosphate co-precipitation (Ausubel et al., 1987). Briefly, cells were plated in 12-well microplates at a density of 1×10^5 cells/well. The next day, the medium was replaced, and 2–6 hours later, precipitated calcium phosphate:DNA co-crystals were added. After 12–16 hours, the cells were shocked for 3 minutes with 20% glycerol in Tris-buffered saline, pH 7.4. Fresh medium and (if any) hormones were added. For MCF-7 and 231 cells, transient transfection was carried out using the Tfx™-20 reagent (Promega; Madison, Wis.) according to the manufacturer's direction with minor changes. Briefly, 1×10^5 cells were plated in each well of 12-well microplates one day before transfection. A 1:3 ratio of DNA to lipid was used. The DMEM/F12 medium without serum was used as carrier for the DNA-lipid mixture. After 1 hour incubation with the DNA-lipid-DMEM/F12 at 37° C., the cells were transferred to fresh DMEM/F12 supplemented with 10% CD-FBS, 50,000 U/I of penicillin, 50 mg/l streptomycin and hormones. Transfection on CHO—S cells was described as above for the preparation of ERs extraction except the medium contained 10% CD-NBCS. The cells subjected to either transfection method were harvested 48 hours post-transfection. Reporter assays were performed by lysing the cells in situ with 250 μl of passive lysis buffer (Promega). Activity was determined using the dual luciferase assay protocol according to the manufacturer's directions (Promega) on a Monolight 2010 luminometer (Analytical Luminescence, San Diego, Calif.)
Transient transfections of HepG2 cells were carried out and luciferase activity determined.

[1] = system: wild type ER and the ER mutants
Protocol: HepG2 human hepatoma cells were maintained in a humidified 5% CO2 incubator at 37° C. in Dulbecco's Modified Eagle's Medium (DMEM; Sigma; St. Louis, Mo.) supplemented with 10 % charcoal-dextran-stripped fetal bovine serum (CD-FBS; Atlanta Biologicals, Inc; Atlanta, Ga.), 50,000 U/l of penicillin, and 50 mg/liter streptomycin (Life Technologies, Inc.). MCF-7 cells were routinely maintained in DMEM/Nutrient Mixture F-12 (DMEM/F12) supplemented with 10% heat-inactived FBS, 50,000 U/l of penicillin, and 50 mg/l streptomycin.
Briefly, cells were plated in 12-well microplates at a density of 1×10^5 cells/well. The next day, the medium was replaced, and 2–6 hours later, precipitated calcium phosphate:DNA co-crystals were added. After 12–16 hours, the cells were shocked for 3 minutes with 20% glycerol in Tris-buffered saline, pH 7.4. Fresh medium and (if any) hormones were added. For MCF-7 and 231 cells, transient transfection was carried out using the Tfx™-20 reagent (Promega; Madison, Wis.) according to the manufacturer's direction with minor changes. Briefly, 1×10^5 cells were plated in each well of 12-well microplates one day before transfection. A 1:3 ratio of DNA to lipid was used. The DMEM/F12 medium without serum was used as carrier for the DNA-lipid mixture. After 1 hour incubation with the DNA-lipid-DMEM/F12 at 37° C., the cells were transferred to fresh DMEM/F12 supplemented with 10% CD-FBS, 50,000 U/I of penicillin, 50 mg/l streptomycin and hormones. Transfection on CHO—S cells was described as above for the preparation of ERs extraction except the medium contained 10% CD-NBCS. The cells subjected to either transfection method were harvested 48 hours post-transfection. Reporter assays were performed by lysing the cells in situ with 250 μl of passive lysis buffer (Promega).
The data represent the mean±S.E. of three independent transfections.

N-79 [2] = target: T2, N-79 (Homo sapiens, UniProt P03372, E203W/G400V/H216G/Q214A); assay: Autoregulated expression system (ATL8/PAL-N-79 + ATL8/PAL-LUC) in 231 human breast cancer cells; format: cell-based; parameters: expressed in transfected cells; host or cells: HepG2 (A20); 231 human breast cancer cells (A21); CHO-S (A22); conditions: 10 nM OHT
Excerpt: (§1) These fragments were digested with KpnI and BamHI and then purified from agarose gels. […] To create C-129, this ER fragment was digested with XbaI and KpnI and then cloned together with the DNA fragment containing 129 amino acids of VP16 into 5.9 kb vector generated by digestion of CMV-hER with XbaI and BamHI. The same strategy was adopted to create C-79 using the DNA fragment containing 79 amino acids of VP16. Therefore, the expression of these chimeras is driven by the same CMV promoter as that of ER-3M. […] The amplified PCR product was digested with NcoI and NotI. […] This fragment and the NcoI/NotI PCR fragment were then inserted together into the 4.3 kb vector, pGL3-ATL8/PAL-LUC, which was created by digesting ATL8/PAL-LUC completely with NcoI and partially with XbaI so that the luciferase gene was replaced by N-79.
(§2) A second plasmid also containing 8 copes of pS2 PAL drives expression of the reporter gene (FIG. 11, ATL8/PAL-LUC).

ER mutant 4.3 = ER mutant 4.3 (Homo sapiens, UniProt P03372, E203W/G215R/G400V/H216P/N217T/Q214V); conditions: 10 μM ligand
Protocol: HepG2 human hepatoma cells were maintained in a humidified 5% CO2 incubator at 37° C. in Dulbecco's Modified Eagle's Medium (DMEM; Sigma; St. Louis, Mo.) supplemented with 10 % charcoal-dextran-stripped fetal bovine serum (CD-FBS; Atlanta Biologicals, Inc; Atlanta, Ga.), 50,000 U/l of penicillin, and 50 mg/liter streptomycin (Life Technologies, Inc.).
Transient transfections in HepG2 cells was accomplished using calcium phosphate co-precipitation (Ausubel et al., 1987). Briefly, cells were plated in 12-well microplates at a density of 1×10^5 cells/well. The next day, the medium was replaced, and 2–6 hours later, precipitated calcium phosphate:DNA co-crystals were added. After 12–16 hours, the cells were shocked for 3 minutes with 20% glycerol in Tris-buffered saline, pH 7.4. Fresh medium and (if any) hormones were added. For MCF-7 and 231 cells, transient transfection was carried out using the Tfx™-20 reagent (Promega; Madison, Wis.) according to the manufacturer's direction with minor changes. Briefly, 1×10^5 cells were plated in each well of 12-well microplates one day before transfection. A 1:3 ratio of DNA to lipid was used. […] Activity was determined using the dual luciferase assay protocol according to the manufacturer's directions (Promega) on a Monolight 2010 luminometer (Analytical Luminescence, San Diego, Calif.) […]

N-79 [3] = target: T2, N-79; assay: Autoregulated expression system (ATL8/PAL-N-79 + ATL8/PAL-LUC) in HepG2 cells; format: cell-based; parameters: expressed in transfected cells; host or cells: HepG2 (A20); 231 human breast cancer cells (A21); CHO-S (A22); conditions: HepG2 human hepatoblastoma cells, 10 nM OHT
Excerpt: as §1, §2

N-79 [4] = target: T2, N-79; conditions: CHO-S cells, 10 nM OHT
Excerpt: as §1, §2

[5] = system: mutant and chimeric estrogen receptors
[6] = ATL8/PAL-LUC, 2.5 ng expression plasmid, 10 nM OHT

Sequence of ER3M (P03372 whole entry E203W/Q214A/H216G/G400V): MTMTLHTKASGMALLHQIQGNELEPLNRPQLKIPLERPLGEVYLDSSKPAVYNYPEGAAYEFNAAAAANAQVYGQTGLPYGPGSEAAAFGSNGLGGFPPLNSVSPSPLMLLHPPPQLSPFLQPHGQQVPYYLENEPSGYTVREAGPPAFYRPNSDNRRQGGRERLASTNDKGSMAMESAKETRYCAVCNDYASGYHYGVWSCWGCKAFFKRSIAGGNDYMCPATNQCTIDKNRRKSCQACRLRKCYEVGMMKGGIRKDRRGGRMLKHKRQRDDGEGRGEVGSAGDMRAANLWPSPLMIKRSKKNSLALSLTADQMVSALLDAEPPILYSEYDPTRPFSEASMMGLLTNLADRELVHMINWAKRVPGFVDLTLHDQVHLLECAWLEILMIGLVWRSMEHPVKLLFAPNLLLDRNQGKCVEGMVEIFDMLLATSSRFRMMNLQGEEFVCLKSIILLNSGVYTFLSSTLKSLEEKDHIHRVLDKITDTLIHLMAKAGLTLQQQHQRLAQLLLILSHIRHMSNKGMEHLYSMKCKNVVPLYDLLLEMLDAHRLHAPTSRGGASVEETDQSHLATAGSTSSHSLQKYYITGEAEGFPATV
T2 sequence (P03372 with tags, fused parts or gaps E203W/Q214A/H216G/G400V): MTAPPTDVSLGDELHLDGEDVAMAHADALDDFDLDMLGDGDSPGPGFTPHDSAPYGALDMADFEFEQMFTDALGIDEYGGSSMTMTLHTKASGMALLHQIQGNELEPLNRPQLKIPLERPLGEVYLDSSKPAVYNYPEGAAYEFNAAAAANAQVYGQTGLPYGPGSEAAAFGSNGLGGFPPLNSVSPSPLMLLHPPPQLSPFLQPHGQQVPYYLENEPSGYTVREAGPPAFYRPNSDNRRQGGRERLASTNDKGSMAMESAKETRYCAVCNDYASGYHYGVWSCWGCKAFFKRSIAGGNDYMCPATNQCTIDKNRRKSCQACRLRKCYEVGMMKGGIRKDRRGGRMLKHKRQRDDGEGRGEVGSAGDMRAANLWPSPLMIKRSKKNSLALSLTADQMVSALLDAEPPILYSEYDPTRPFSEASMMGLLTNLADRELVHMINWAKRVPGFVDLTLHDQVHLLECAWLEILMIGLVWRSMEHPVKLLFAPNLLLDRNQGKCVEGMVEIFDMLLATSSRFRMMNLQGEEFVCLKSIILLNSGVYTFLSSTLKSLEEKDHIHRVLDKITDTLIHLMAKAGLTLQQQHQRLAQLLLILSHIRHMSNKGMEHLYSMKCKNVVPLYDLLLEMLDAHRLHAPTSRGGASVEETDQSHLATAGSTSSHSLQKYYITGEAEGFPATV
Sequence of ER 4.3 (P03372 whole entry E203W/Q214V/G215R/H216P/N217T/G400V): as the sequence (P03372 whole entry E203W/Q214A/H216G/G400V) above, with A214V, G215R, G216P, N217T counted along it
Sequence of ER mutant 4.3 (P03372 whole entry E203W/Q214V/G215R/H216P/N217T/G400V): as the sequence (P03372 whole entry E203W/Q214A/H216G/G400V) above, with A214V, G215R, G216P, N217T counted along it
Sequence of ER 2 (P03372 whole entry E203W/Q214A/G215R/G400V): as the sequence (P03372 whole entry E203W/Q214A/H216G/G400V) above, with G215R, G216H counted along it

Molecule: 4-hydroxytamoxifen [OHT]
- transactivation by OHT compared with MOX (ER3M; ATL2/PAL-LUC, 10 nM ligand): exceeded that seen with MOX
- increase in reporter gene expression by OHT (ER3M; [6]): 117 fold
- maximal level of transactivation (ER3M; ATL8/PAL-LUC, tamoxifen compared with OHT): similar
- transactivation by OHT compared with MOX (ER 4.3; ATL2/PAL-LUC, 10 nM ligand): equal to that seen with MOX
- increase in reporter gene expression by OHT (ER 4.3; [6]): 172 fold
- transactivation by OHT compared with MOX (ER 2): equal to that seen with MOX
- agonism on ATL8/cERE-LUC, OHT compared with moxestrol (wild type hERα; 10 nM ligand): weaker agonist than moxestrol
- transactivation of ATL8/PAL-LUC, OHT compared with MOX (wild type hERα; 10 nM ligand): higher with OHT than with MOX
- transactivation level on two copies of pS2 PAL (wild type hERα; ATL2/PAL-LUC, 10 nM ligand): undetectable
- agonist activity when bound to the cERE (wild type hERα; ATL2/cERE-LUC, 10 nM OHT): weak agonist activity
- induction of luciferase activity from ATL8/PAL (wild type hERα; ATL8/PAL-LUC, 5 ng expression plasmid, 10 nM OHT): 52 fold
- agonist character of OHT when pS2 PAL supplied the ERE ([1]; ATL2/PAL-LUC, 10 nM ligand, ER mutants): full agonist
- transactivation in response to OHT, percent of that seen with MOX ([1]; ATL2/pS2 ERE-LUC, 10 nM ligand): about 30%
- OHT transactivation with four copies of pS2 PAL compared with MOX ([1]; ATL4/PAL-LUC, 10 nM ligand): same level of transactivation as MOX
- OHT activity, percent of that seen with MOX ([1]; ATL4/cERE-LUC, wild type hERα and ERs 3M and 4.3, 10 nM ligand): 20–25%
- OHT-mediated activation of transcription on different versions of pS2 PAL reporters ([1]; summary, pS2 PAL reporters and the ER mutants): 70–1000 fold
- increase in luciferase activity upon addition of OHT (N-79 [2]): 813 fold
- transactivation by OHT, percent of that seen with E2 (ER mutant 4.3; ATL4/PAL-LUC): 45%
- OHT-mediated transactivation, percent of that observed with estradiol (E2) (ER mutant 4.3; ATL4/cERE-LUC): 13%
- increase in luciferase activity upon addition of OHT (N-79 [3]): 1027 fold
- induction upon addition of OHT (N-79 [4]): 28 fold

Molecule: O=C(c1ccc(OCCN2CCCCC2)cc1)c1c(-c2ccc(O)cc2)sc2cc(O)ccc12 [Raloxifene]
- transcription activation when bound to mutant and chimeric estrogen receptors [5]: fail to activate transcription
